This note sets out measurements from patent US9708286B2, “Ingenol-3-acylates III and ingenol-3-carbamates” (LEO Laboratories Limited, priority 2010, dated 2017).

Common to all, as to type: cell-based
The subject of assay [1] is PMN's (polymorphonuclear leukocytes). The assay can be described thus: Neutrophil oxidative burst. The note with it: Leukocyte, 40 min, read-out: Neutrophil oxidative burst Rel EC50 range, PMN from buffy coats, 40 min at RT, hydroethidine fluorescence; normalized to 5×10^−7 M PEP0005. The method, then:
PMN's (polymorphonuclear leukocytes) were isolated and purified from fresh buffy coats by sequential sedimentation, density centrifugation and lysis of contaminating erythrocytes. Buffy coats were incubated with 2% methocel for 30-45 min to differentially sediment red blood cells. The leukocyte-rich supernatant was transferred to lymphoprep tubes to remove mononuclear cells by density centrifugation (400×g, 30 min). The pellet was resuspended and any remaining erythrocytes lysed using 0.2% NaCl for 30 sec before restoring isotonicity by the addition of 1.2% NaCl. This step was repeated until the cell pellet appears relatively free of red blood cells. Cells were resuspended in DPBS (Dulbecco's Phosphate Buffered Saline) (w.o. Ca^2+, Mg^2+) and the concentration adjusted to 1.4×10^6 cells/ml in HBSS (Hanks Balanced Salt solution) (w Ca^2+, Mg^2±) containing 0.1% BSA (Bovine Serum Albumin) and 5 mM glucose just prior to assay initiation. Titrated reference and test compounds were pre-mixed with HE (Hydroethidine) (10 μM final assay concentration) before addition to 96-well plates containing 2.5×10^5 cells. Following 40 min incubation at RT, changes in the respiratory burst was estimated by measuring fluorescence at 579 nm (excitation: 485 nm) using an Envision plate reader.
Test compound titration curves were fitted to a four-parameter sigmoidal curve after normalizing the effect of the test compound to the effect of the positive control (5×10^−7 M PEP0005). Rel EC50 denotes the concentration of test compound producing an effect that is midway between the fitted top and bottom. Abs EC50 is the concentration of test compound that provokes a response corresponding to 50% of the maximal effect associated with the positive control (5×10^−7 M PEP0005).

Assay [2] concerns Primary human epidermal keratinocytes, HeKa. The assay can be described thus: HeKa cytokine release (IL-8). The note with it: Homo sapiens, HEKa, 6 h, read-out: HeKa cytokine release (IL-8) Rel EC50 range. As for the experimental part:
Primary human epidermal keratinocytes, HeKa, were seeded (10.000 cells/well) in 96-well plates the day before the assay. Test compounds were diluted in DMSO (dimethyl sulfoxide) and further diluted in assay medium and pipetted into wells of 96 well-plates containing HeKa cells. The plates were incubated for 6 h at 37° C. in humidified air with 5% CO2. Plates were centrifuged briefly to spin down cells at 4° C., the supernatant was removed and analysed by Meso Scale Discovery (MSD) 4-spot cytokine assay (Pro-inflammatory II Ultra Sensitive kit, MSD, MD, USA). The MSD assay employs a sandwich immunoassay format where capture antibodies are coated in a patterned array on the bottom of the wells of a 4-Spot-Multi-MSD plate. Standard samples were incubated in the MULTI-SPOT plates as well, and the cytokine (IL-8) binds to its corresponding capture antibody spot. The cytokine level was quantitated on a SECTOR™ Imager using a cytokine-specific Detection Antibody labelled with MSD SULFO-TAG™ reagent.
Test compound titration curves were fitted to a four-parameter sigmoidal curve after normalizing the effect of the test compound to the effect of the positive control (1.5×10^−7 M PEP0005). Rel EC50 denotes the concentration of test compound producing an effect that is midway between the fitted top and bottom.

In another assay the test system is HeLa cells. The assay can be described thus: Necrosis assay. The following applies: Homo sapiens, HeLa, 0.5 h, read-out: HeLa necrosis EC50 range. The method, then: HeLa cells (ATCC CCL-002) were grown in minimal essential medium (Invitrogen catalog no. 42360) containing 10% fetal bovine serum, 100 IU/ml penicillin and 100 μg/ml streptomycin. 4,000-6,000 cells were seeded into 96-well black ViewPlates-plates, clear bottom, (Perkin Elmer) in 100 μl medium and incubated overnight. Compounds were dissolved and pre-diluted in DMSO in 96-well polypropylene plates (Greiner) in a concentration range of 15 μM to 600 μM. At the time of the experiment cell plates were placed on heating blocks at 37° C., medium was removed and 40 μl fresh, pre-warmed medium was added per well. Cells were incubated for 15 min before addition of compounds. In parallel, 3 μl of compounds were diluted with 197 μl growth medium on a Tecan freedom-EVO pipetting station using 250 μl/s pipetting speed, in order to ensure effective mixing of the highly concentrated compound solutions with the aqueous phase. These pre-dilution plates were then equilibrated on heating blocks at 37° C. for 10 min. 80 μl pre-diluted compound were transferred manually to the corresponding wells containing HeLa cells yielding compound concentrations of 10 μM to 400 μM. Control conditions were 1% DMSO in growth medium (100% viability) and 400 μM ingenol mebutate in growth medium (0% viability). Plates were incubated on the heating blocks at 37° C. for 30 min. At the end of the incubation 10 μl PrestoBlue reagent (Invitrogen) were added to each well, plates were sealed with black seal, followed by incubation at 37° C. for 10 min with gentle shaking (150 rpm). Subsequently, plates were placed at room temperature for 20-30 min. Plates were read immediately after on an Envision Fluorescence reader (Perkin Elmer) with excitation at 535 nm and emission at 630 nm. Test compound titration curves were fitted to a four-parameter sigmoidal curve after normalizing the effect of the test compound to the effect of the positive control (4 10^−4 M PEP0005/ingenol mebutate). AbsEC50 denotes the concentration of test compound producing 50% effect.

As usually defined, the EC50 is the midpoint of the concentration-response curve. For the compound `CC1=C[C@]23C(=O)[C@@H](C=C(CO)[C@@H](O)[C@]2(O)[C@H]1OC(=O)N1CCCC1C(F)(F)F)[C@H]1[C@@H](C[C@H]3C)C1(C)C` (single isomer, unassigned; isomer a) [Compound 740, Ingenol 3-(2-trifluoromethyl-pyrrolidine-1-carboxylate) (ISOMER A)], the EC50 is less than 20 nM in assay [1] and 20 to 100 nM in assay [2].

As for `CC1=C[C@]23C(=O)[C@@H](C=C(CO)[C@@H](O)[C@]2(O)[C@H]1OC(=O)c1cnnn1-c1ccccc1)[C@H]1[C@@H](C[C@H]3C)C1(C)C` [Compound 504, Ingenol 3-(3-phenyltriazole-4-carboxylate)], the EC50 in assay [1] and in assay [2] was 20 to 100 nM throughout.

On to `CC1=C[C@]23C(=O)[C@@H](C=C(CO)[C@@H](O)[C@]2(O)[C@H]1OC(=O)c1cn(C)c2ccccc12)[C@H]1[C@@H](C[C@H]3C)C1(C)C` [Compound 509, Ingenol 3-(1-methylindole-3-carboxylate)], for which the EC50 in assay [1] and in assay [2] was less than 20 nM each time.

Regarding `CC1=C[C@]23C(=O)[C@@H](C=C(CO)[C@@H](O)[C@]2(O)[C@H]1OC(=O)c1c(C(C)(C)C)noc1C)[C@H]1[C@@H](C[C@H]3C)C1(C)C` [Compound 549, Ingenol 3-(5-methyl-3-tert-butyl-isoxazole-4-carboxylate)], the EC50 in assay [1] and in assay [2] was less than 20 nM throughout.

Take `CC1=C[C@]23C(=O)[C@@H](C=C(CO)[C@@H](O)[C@]2(O)[C@H]1OC(=O)c1c(C)nn(C(C)(C)C)c1C)[C@H]1[C@@H](C[C@H]3C)C1(C)C` [Compound 551, Ingenol 3-(1-tert-butyl-3,5-dimethyl-pyrazole-4-carboxylate)]: the EC50 in assay [1] and in assay [2] was less than 20 nM in each case.

As for `CC1=C[C@]23C(=O)[C@@H](C=C(CO)[C@@H](O)[C@]2(O)[C@H]1OC(=O)c1c(C)cc(=O)oc1C)[C@H]1[C@@H](C[C@H]3C)C1(C)C` [Compound 573, Ingenol 3-(2,4-dimethyl-6-oxo-pyran-3-carboxylate)], the EC50 in assay [1] and in assay [2] was 20 to 100 nM in each case.

For the compound `CC1=C[C@]23C(=O)[C@@H](C=C(CO)[C@@H](O)[C@]2(O)[C@H]1OC(=O)N(C)C)[C@H]1[C@@H](C[C@H]3C)C1(C)C` [Compound 702, Ingenol 3-(N,N-dimethyl-carbamate)], the results for the EC50 in assay [1] and in assay [2] were 20 to 100 nM and greater than 100 nM, respectively.

Take `CC1=C[C@]23C(=O)[C@@H](C=C(CO)[C@@H](O)[C@]2(O)[C@H]1OC(=O)N1CCOCC1)[C@H]1[C@@H](C[C@H]3C)C1(C)C` [Compound 703, Ingenol 3-(morpholine-4-carboxylate)]: the EC50 in assay [1] was 20 to 100 nM; in assay [2] it was greater than 100 nM.

On to `CC1=C[C@]23C(=O)[C@@H](C=C(CO)[C@@H](O)[C@]2(O)[C@H]1OC(=O)N1CCCC1)[C@H]1[C@@H](C[C@H]3C)C1(C)C` [Compound 704, Ingenol 3-(pyrrolidine-1-carboxylate)], for which the EC50 is 20 to 100 nM in assay [1] and greater than 100 nM in assay [2].

As for `CC1=C[C@]23C(=O)[C@@H](C=C(CO)[C@@H](O)[C@]2(O)[C@H]1OC(=O)N1CCCCC1)[C@H]1[C@@H](C[C@H]3C)C1(C)C` [Compound 707, Ingenol 3-(piperidine-1-carboxylate)], the results for the EC50 in assay [1] and in assay [2] were less than 20 nM and 20 to 100 nM, respectively.

For `CC1=C[C@]23C(=O)[C@@H](C=C(CO)[C@@H](O)[C@]2(O)[C@H]1OC(=O)N(C)Cc1ccccc1)[C@H]1[C@@H](C[C@H]3C)C1(C)C` [Compound 708, Ingenol 3-(N-benzyl-N-methyl-carbamate)], the EC50 in assay [1] is 20 to 100 nM; in assay [2] it was less than 20 nM.

With `CC1=C[C@]23C(=O)[C@@H](C=C(CO)[C@@H](O)[C@]2(O)[C@H]1OC(=O)NC1CCCCC1)[C@H]1[C@@H](C[C@H]3C)C1(C)C` [Compound 710, Ingenol 3-(N-cyclohexyl-carbamate)], the EC50 in assay [1] is less than 20 nM; in assay [2], 20 to 100 nM.

As for `CC1=C[C@]23C(=O)[C@@H](C=C(CO)[C@@H](O)[C@]2(O)[C@H]1OC(=O)Nc1ccccc1)[C@H]1[C@@H](C[C@H]3C)C1(C)C` [Compound 711, Ingenol 3-(N-phenyl-carbamate)], the EC50 is 20 to 100 nM in assay [1] and less than 20 nM in assay [2].

As for `CC1=C[C@]23C(=O)[C@@H](C=C(CO)[C@@H](O)[C@]2(O)[C@H]1OC(=O)NC1CCc2ccccc21)[C@H]1[C@@H](C[C@H]3C)C1(C)C` (stereo partly drawn) [Compound 712, Ingenol 3-(N-(indan-1-yl)-carbamate)], the EC50 in assay [1] and in assay [2] was 20 to 100 nM each time.

For the compound `CC1=C[C@]23C(=O)[C@@H](C=C(CO)[C@@H](O)[C@]2(O)[C@H]1OC(=O)N(C)c1ccccn1)[C@H]1[C@@H](C[C@H]3C)C1(C)C` [Compound 724, Ingenol 3-(N-methyl-N-(2-pyridyl)-carbamate)], the results for the EC50 (in assay [2]; with HeLa cells) were 20 to 100 nM and greater than 350 µM, respectively.

For `CC1=C[C@]23C(=O)[C@@H](C=C(CO)[C@@H](O)[C@]2(O)[C@H]1OC(=O)N1CCCCCC1)[C@H]1[C@@H](C[C@H]3C)C1(C)C` [Compound 728, Ingenol 3-(azepane-1-carboxylate)], the EC50 in assay [1] and in assay [2] was 20 to 100 nM in each case.

Consider `C=CCN(C)C(=O)O[C@H]1C(C)=C[C@]23C(=O)[C@@H](C=C(CO)[C@@H](O)[C@]12O)[C@H]1[C@@H](C[C@H]3C)C1(C)C` [Compound 750, Ingenol 3-(N-allyl-N-methyl-carbamate)], for which the EC50 in assay [1] is less than 20 nM; in the assay with HeLa cells it was greater than 350 µM.

As to `C#CCN(C)C(=O)O[C@H]1C(C)=C[C@]23C(=O)[C@@H](C=C(CO)[C@@H](O)[C@]12O)[C@H]1[C@@H](C[C@H]3C)C1(C)C` [Compound 751, Ingenol 3-(N-methyl-N-prop-2-ynyl-carbamate)], the EC50 in assay [1] was 20 to 100 nM; in the assay on HeLa cells it was greater than 350 µM.
